# From patent US6310247A, “7-aryl-6(Z)-heptatrienoic acid retinamides” (Hoffmann-LA Roche Inc., priority 1999, dated 2001)
# System: NMU-induced mammary tumors
# Experiment: NMU-induced mammary tumors in Sprague-Dawley rats
# Assay type: in vivo, rat
# Conditions: for Effect on tumors (in words): i.p., tumor size and number; for Number of first tumors with volume relative to day 0: progressed > 100% / Number of first tumors with volume relative to day 0: regressed > 50% / Number of first tumors with volume relative to day 0: static / Number of first tumors: total: 25 mg/kg i.p. q.d.; for No. of first tumors regressing to unpalpable/no. palpable at day 0: 25 mg/kg i.p., 5×/wk for 4 weeks
# Description: Thus, compounds of formula 1 have efficacy against established nitrosomethylurea (NMU)-induced mammary tumors in rats. The induction of invasive mammary-tissue specific tumors in rats by NMU (Gullino et al., 1975) produces primarily estrogen-dependent carcinomas (Arafah et al., 1980) within as little as 4 weeks following a single, low-toxicity dose (McCormick et al., 1981) and results in a high percentage of tumor induction. The properties of the tumors induced in rats by NMU in this experimental model are representative of human mammary carcinoma and are invasive (McCormick et al., 1981).
# Materials and Methods, 750 virgin female Sprague-Dawley rats 26 to 32 days of age (Harlan Laboratories) were housed in polycarbonate cages (3 rats/cage) and provided food and water ad libitum. Mammary tumors were induced essentially as previously described (Gullino et al., 1975 and McCormick et al., 1981). At the age of 50+/-3 days, each animal received a single dose (50 mg/kg body weight) of NMU (Sigma, St. Louis, Mo.) in 0.85% sodium chloride acidified to pH 5.0 with acetic acid. The carcinogen was administered with a 26 g needle i.v. via the tail vein in a 0.5 ml volume.
# Rats were checked weekly starting 4 weeks after NMU administration for palpable tumors and those bearing at least one mammary tumor, palpable for 11 days or less, were entered into study on day 61 post-NMU administration. Fifteen animals were entered into treatment or control groups. Tumor diameters were measured weekly with calipers along their long and short axes and tumor volume was calculated from the ellipsoid formula, (D×d^2)/2, where D is the long diameter and d is the short diameter. The days on which new palpable tumors arose or on which established tumors disappeared were noted along with anatomical position. Tumors which appeared in the same anatomical location at which a tumor had previously completely regressed were considered to be regrowths of the same tumor. Rats which developed ulcerations of tumors were immediately terminated from studies. All animals entered into groups were weighed daily on weekdays for 6 weeks.
# N-(4-hydroxyphenyl)-(2E,4E,6Z)-7-[3,5-bis(trifluoromethyl)phenyl]-3,7-dimethyl-2,4,6-heptatrienamide was prepared in 4% ethanol, 8% PEG400, 7.2% Cremophor RH40 and 80% D5W and administered intraperitoneally in a 2.8 ml volume via a 21 g needle 5 times per week, q.d., for 4 weeks.
# For treatment of NMU-induced tumors in rats, solutions of the test compound N-(4-hydroxyphenyl)-(2E,4E,6Z)-7-[3,5-bis(trifluoromethyl)phenyl]-3,7-dimethyl-2,4,6-heptatrienamide were prepared daily in 4% ethanol, 8% PEG400, 7.2% Cremophor RH40 and 80% D5W.
structure (smiles),measurement,setting,value
"C/C(=C/C=C/C(C)=C/C(=O)Nc1ccc(O)cc1)c1cc(C(F)(F)F)cc(C(F)(F)F)c1 [N-(4-hydroxyphenyl)-(2E,4E,6Z)-7-[3,5-bis(trifluoromethyl)phenyl]-3,7-dimethyl-2,4,6-heptatrienamide]",Rats treated that succumbed to toxicity,"25 mg/kg/2.8 ml i.p. q.d., 5×/wk for 4 wks",3 of 15
same,Effect on tumors (in words),,decrease both tumor size and tumor number
same,Effect on tumors (in words),listed as the tested compound,"capable of causing existing tumors to shrink, and, in addition, causes the number of tumors to decrease by eliminating first tumors and preventing additional tumors from arising"
same,Number of first tumors with volume relative to day 0: progressed > 100%,"week 1, 5×/wk for 4 wks",4
same,Number of first tumors with volume relative to day 0: regressed > 50%,"week 1, 5×/wk for 4 wks",10
same,Number of first tumors with volume relative to day 0: static,"week 1, 5×/wk for 4 wks",5
same,Number of first tumors: total,"week 1, 5×/wk for 4 wks",19
same,No. of first tumors regressing to unpalpable/no. palpable at day 0,"week 1, ** p < 0.005 vs vehicle",7/20
same,Number of first tumors with volume relative to day 0: progressed > 100%,"week 2, 5×/wk for 4 wks",6
same,Number of first tumors with volume relative to day 0: regressed > 50%,"week 2, 5×/wk for 4 wks",8
same,Number of first tumors with volume relative to day 0: static,"week 2, 5×/wk for 4 wks",5
same,Number of first tumors: total,"week 2, 5×/wk for 4 wks",19
same,No. of first tumors regressing to unpalpable/no. palpable at day 0,"week 2, * p < 0.05 vs vehicle",5/19
same,Number of first tumors with volume relative to day 0: progressed > 100%,"week 3, 5×/wk for 4 wks",6
same,Number of first tumors with volume relative to day 0: regressed > 50%,"week 3, 5×/wk for 4 wks",6
same,Number of first tumors with volume relative to day 0: static,"week 3, 5×/wk for 4 wks",3
same,Number of first tumors: total,"week 3, 5×/wk for 4 wks",19
same,No. of first tumors regressing to unpalpable/no. palpable at day 0,week 3,3/19
same,No. of first tumors regressing to unpalpable/no. palpable at day 0,"week 4, * p < 0.05 vs vehicle",4/19
same,No. of first tumors regressing to unpalpable/no. palpable at day 0,week 5,4/18
same,No. of first tumors regressing to unpalpable/no. palpable at day 0,"week 6, * p < 0.05 vs vehicle",5/18
